For one experiment, the target named is human recombinant ATX (Homo sapiens, UniProt Q13822). Briefly: Autotaxin (ATX) activity Quanta Red assay. Type of experiment: biochemical. Conditions: human recombinant ATX 0.8 μg/mL, 2 hours at room temperature, IC50 determined in duplicate; read-out: Activity (ATX activity, Quanta Red assay; IC50). Summed up:
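Recombinant human ATX reaction stopped after 2 h with Quanta Red stop solution; fluorescence read at […]. Controls with DMSO, with and without ATX; IC50 in duplicate.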
In the case of `C[C@H](NC(=O)CSc1nc2cccnc2n1Cc1ccc(OC(F)(F)F)cc1)c1ccc(F)cc1` [Example 145, N—[(S)-1-(4-fluoro-phenyl)-ethyl]-2-[3-(4-trifluoromethoxy-benzyl)-3H-imidazo[4,5-b]pyridin-2-ylsulfanyl]-acetamide], the IC50 came out at 0.002 µM. With `C[C@H](NC(=O)CS(=O)(=O)c1nc2cccnc2n1Cc1ccc(OC(F)(F)F)cc1)c1ccc(F)cc1` [Example 150, N—[(S)-1-(4-fluoro-phenyl)-ethyl]-2-[3-(4-trifluoromethoxy-benzyl)-3H-imidazo[4,5-b]pyridine-2-sulfonyl]-acetamide], the IC50 is 2.88 µM. On to `C[C@H](NC(=O)COc1nc2cccnc2n1Cc1ccc(OC(F)(F)F)cc1)c1ccc(Cl)cc1` [Example 152, N—[(S)-1-(4-chloro-phenyl)-ethyl]-2-[3-(4-trifluoromethoxy-benzyl)-3H-imidazo[4,5-b]pyridin-2-yloxy]-acetamide], for which the IC50 worked out at 0.005 µM. The same measure, in the same setting: with `C[C@H](NC(=O)COc1nc2cccnc2n1Cc1ccc(F)cc1)c1ccc(F)cc1` [Example 153, 2-[3-(4-fluoro-benzyl)-3H-imidazo[4,5-b]pyridin-2-yloxy]-N—[(S)-1-(4-fluoro-phenyl)-ethyl]-acetamide] the figure was 0.039 µM.

In the case of `C[C@H](NC(=O)NCc1nc2cccnc2n1Cc1ccc(F)cc1)c1ccc(Cl)cc1` [Example 157, 1-[(S)-1-(4-Chloro-phenyl)-ethyl]-3-[3-(4-fluoro-benzyl)-3H-imidazo[4,5-b]pyridin-2-ylmethyl]-urea], the IC50 was determined as 0.01 µM. As to `C[C@H](NC(=O)NCc1nc2cccnc2n1Cc1ccc(F)cc1)c1ccc(F)cc1` [Example 160, 1-[3-(4-Fluoro-benzyl)-3H-imidazo[4,5-b]pyridin-2-ylmethyl]-3-[(S)-1-(4-fluoro-phenyl)-ethyl]-urea], the IC50 was 0.08 µM. Same read-out and setting: for `C[C@H](OC(=O)NCc1nc2cccnc2n1Cc1ccc(F)cc1)c1ccc(F)cc1` [Example 164, [3-(4-Fluoro-benzyl)-3H-imidazo[4,5-b]pyridin-2-ylmethyl]-carbamic acid (S)-1-(4-fluoro-phenyl)-ethyl ester] the value was 0.957 µM.

Staying with this experiment, now noted: read-out: Activity (ATX activity, Quanta Red assay; IC50).
Regarding `C[C@H](NC(=O)CCc1cc2cc(F)cnc2n1Cc1ccc(Cl)cc1)c1ccc(F)cc1` [Example 141, 3-[1-(4-Chloro-benzyl)-5-fluoro-1H-pyrrolo[2,3-b]byridin-2-yl]-N-[(S)-1-(4-fluoro-phenyl)-ethyl]-propionamide], the IC50 was 0.014 µM. On to `O=C(CSc1nc2cccnc2n1Cc1ccc(OC(F)(F)F)cc1)N[C@@H](CO)c1ccccc1` [Example 142, N-((R)-2-Hydroxy-1-phenyl-ethyl)-2-[3-(4-trifluoromethoxy-benzyl)-3H-imidazo[4,5-b]pyridin-2-ylsulfanyl]-acetamide], for which the IC50 turned out to be 0.001 µM. As to `O=C(CSc1nc2cccnc2n1Cc1ccc(F)cc1)N[C@@H](CO)c1ccccc1` [Example 143, 2-[3-(4-Fluoro-benzyl)-3H-imidazo[4,5-b]pyridin-2-ylsulfanyl]-N-((R)-2-hydroxy-1-phenyl-ethyl)-acetamide], the IC50 was 0.001 µM. With `C[C@H](NC(=O)CSc1nc2cccnc2n1Cc1ccc(OC(F)(F)F)cc1)c1ccc(Cl)cc1` [Example 144, N-[(S)-1-(4-Chloro-phenyl)-ethyl]-2-[3-(4-trifluoromethoxy-benzyl)-3H-imidazo[4,5-b]pyridin-2-ylsulfanyl]-acetamide], the IC50 turned out to be 0.002 µM.

With `C[C@H](NC(=O)CSc1nc2cccnc2n1Cc1ccc(F)cc1)c1ccc(F)cc1` [Example 146, 2-[3-(4-Fluoro-benzyl)-3H-imidazo[4,5-b]pyridin-2-ylsulfanyl]-N-[(S)-1-(4-fluoro-phenyl)-ethyl]-acetamide], the IC50 was 0.003 µM. Regarding `C[C@H](NC(=O)CSc1nc2cccnc2n1Cc1ccc(F)cc1)c1ccc(N2CCOCC2)cc1` [Example 147, 2-[3-(4-Fluoro-benzyl)-3H-imidazo[4,5-b]pyridin-2-ylsulfanyl]-N-[(S)-1-(4-morpholin-4-yl-phenyl)-ethyl]-acetamide], the IC50 worked out at 0.003 µM. In the case of `O=C(COc1nc2cccnc2n1Cc1ccc(OC(F)(F)F)cc1)N[C@@H](CO)c1ccccc1` [Example 151, N-((R)-2-Hydroxy-1-phenyl-ethyl)-2-[3-(4-trifluoromethoxy-benzyl)-3H-imidazo[4,5-b]pyridin-2-yloxy]-acetamide], the IC50 was 0.003 µM. In the case of `CC(Sc1nc2cccnc2n1Cc1ccc(OC(F)(F)F)cc1)C(=O)N[C@@H](CO)c1ccccc1` (stereo partly drawn) [Example 154, N—((R)-2-hydroxy-1-phenyl-ethyl)-2-[3-(4-trifluoromethoxy-benzyl)-3H-imidazo[4,5-b]pyridin-2-ylsulfanyl]-propionamide], the IC50 stood at 0.011 µM.

Turning to `C[C@H](NC(=O)CCc1nc2cccnc2n1Cc1ccc(O)cc1)c1ccc(F)cc1` [Example 155, N—[(S)-1-(4-fluoro-phenyl)-ethyl]-3-[3-(4-hydroxy-benzyl)-3H-imidazo[4,5-b]pyridin-2-yl]-propionamide], the IC50 is 0.254 µM. In the case of `CC(C)COc1ccc(Cn2c(CCC(=O)N[C@@H](C)c3ccc(F)cc3)nc3cccnc32)cc1` [Example 156, N—[(S)-1-(4-fluoro-phenyl)-ethyl]-3-[3-(4-isobutoxy-benzyl)-3H-imidazo[4,5-b]pyridin-2-yl]-propionamide], the IC50 stood at 0.704 µM. For `C[C@H](NC(=O)NCc1nc2cccnc2n1Cc1ccc(F)c(F)c1)c1ccc(Br)cc1` [Example 158, 1-[(S)-1-(4-Bromo-phenyl)-ethyl]-3-[3-(3,4-difluoro-benzyl)-3H-imidazo[4,5-b]pyridin-2-ylmethyl]-urea], the IC50 worked out at 0.017 µM. Turning to `COc1ccc([C@H](C)NC(=O)NCc2nc3cccnc3n2Cc2ccc(F)cc2)cc1` [Example 159, 1-[3-(4-Fluoro-benzyl)-3H-imidazo[4,5-b]pyridin-2-ylmethyl]-3-[(S)-1-(4-methoxy-phenyl)-ethyl]-urea], the IC50 turned out to be 0.042 µM. As to `C[C@H](NC(=O)NCc1nc2cccnc2n1Cc1ccc(F)cc1)c1ccccc1` [Example 161, 1-[3-(4-fluoro-benzyl)-3H-imidazo[4,5-b]pyridin-2-ylmethyl]-3-((S)-1-phenyl-ethyl)-urea], the IC50 turned out to be 0.115 µM. On to `O=C(NCc1nc2cccnc2n1Cc1ccc(F)c(F)c1)N[C@@H](CO)c1ccccc1` [Example 162, 1-[3-(3,4-difluoro-benzyl)-3H-imidazo[4,5-b]pyridin-2-ylmethyl]-3-((R)-2-hydroxy-1-phenyl-ethyl)-urea], for which the IC50 worked out at 0.209 µM. `C[C@H](NC(=O)NCc1nc2cccnc2n1Cc1ccc(F)c(F)c1)c1ccc(N2CCOCC2)cc1` [Example 163, 1-[3-(3,4-Difluoro-benzyl)-3H-imidazo[4,5-b]pyridin-2-ylmethyl]-3-[(S)-1-(4-morpholin-4-yl-phenyl)-ethyl]-urea]: the IC50 was 0.309 µM. `COc1cccc([C@H](C)NC(=O)NCc2nc3cccnc3n2Cc2ccc(F)cc2)c1` [Example 165, 1-[3-(4-Fluoro-benzyl)-3H-imidazo[4,5-b]pyridin-2-ylmethyl]-3-[(S)-1-(3-methoxy-phenyl)-ethyl]-urea]: the IC50 was determined as 0.514 µM. As for `C[C@H](NC(=O)OCc1nc2cccnc2n1Cc1ccc(F)cc1)c1ccc(F)cc1` [Example 166, [(S)-1-(4-fluoro-phenyl)-ethyl]-carbamic acid 3-(4-fluoro-benzyl)-3H-imidazo[4,5-b]pyridin-2-ylmethyl Ester], the IC50 worked out at 0.336 µM. As for `C[C@H](NC(=O)CCc1nc2cccnc2n1Cc1ccc(OC(F)(F)F)cc1)c1ccc(N2CCN(C)CC2)cc1` [Example 167, N—{(S)-1-[4-(4-methyl-piperazin-1-yl)-phenyl]-ethyl}-3-[3-(4-trifluoromethoxy-benzyl)-3H-imidazo[4,5-b]pyridin-2-yl]-propionamide], the IC50 is 0.001 µM. Regarding `C[C@H](NC(=O)CCc1nc2cccnc2n1Cc1ccc(OC(F)(F)F)cc1)c1ccc(N2CC[C@@H](N(C)C)C2)cc1` [Example 168, N-{(S)-1-[4-((R)-3-Dimethylamino-pyrrolidin-1-yl)-phenyl]-ethyl}-3-[3-(4-trifluoromethoxy-benzyl)-3H-imidazo[4,5-b]pyridin-2-yl]-propionamide], the IC50 is 0.001 µM. Regarding `C[C@H](NC(=O)CCc1nc2cccnc2n1Cc1ccc(OC(F)(F)F)cc1)c1ccc(N2CC[C@H](N(C)C)C2)cc1` [Example 169, N-{(S)-1-[4-((S)-3-Dimethylamino-pyrrolidin-1-yl)-phenyl]-ethyl}-3-[3-(4-trifluoromethoxy-benzyl)-3H-imidazo[4,5-b]pyridin-2-yl]-propionamide], the IC50 turned out to be 0.001 µM. `C[C@H](NC(=O)CCc1nc2cccnc2n1Cc1ccc(OC(F)(F)F)cc1)c1ccc(N2CCCNCC2)cc1` [Example 170, N-[(S)-1-(4-[1,4]Diazepan-1-yl-phenyl)-ethyl]-3-[3-(4-trifluoromethoxy-benzyl)-3H-imidazo[4,5-b]pyridin-2-yl]-propionamide]: the IC50 worked out at 0.002 µM. With `C[C@@H]1CN(c2ccc([C@H](C)NC(=O)CCc3nc4cccnc4n3Cc3ccc(OC(F)(F)F)cc3)cc2)C[C@H](C)N1` [Example 171, N-{(S)-1-[4-((cis)-3,5-Dimethyl-piperazin-1-yl)-phenyl]-ethyl}-3-[3-(4-trifluoromethoxy-benzyl)-3H-imidazo[4,5-b]pyridin-2-yl]-propionamide], the IC50 was 0.002 µM. For `CC[C@H]1CN(c2ccc([C@H](C)NC(=O)CCc3nc4cccnc4n3Cc3ccc(OC(F)(F)F)cc3)cc2)CCN1` [Example 172, N-{(S)-1-[4-((S)-3-Ethyl-piperazin-1-yl)-phenyl]-ethyl}-3-[3-(4-trifluoromethoxy-benzyl)-3H-imidazo[4,5-b]pyridin-2-yl]-propionamide], the IC50 turned out to be 0.002 µM. Turning to `C[C@H](NC(=O)CCc1nc2cccnc2n1Cc1ccc(OC(F)(F)F)cc1)c1ccc(NC2CCN(C)CC2)cc1` [Example 173, N-{(S)-1-[4-(1-Methyl-piperidin-4-ylamino)-phenyl]-ethyl}-3-[3-(4-trifluoromethoxy-benzyl)-3H-imidazo[4,5-b]pyridin-2-yl]-propionamide], the IC50 came out at 0.003 µM.

(Values after patent US11453666B2, “Autotaxin inhibitory compounds” (Cancer Research Technology Limited, priority 2015, dated 2022).)
